Data: ChEMBL document CHEMBL1201862, “PubChem BioAssay data set” (2004)
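Protocol summary: plate cells (96-well), add compound at 5 concentrations, incubate 48 h, interpolate endpoints linearly. Abbreviation: GI50, concentration required for 50% inhibition of growth.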 Active and inactive are the calls of the source. Rule as the data show it: active = GI50 up to about 1.1 µM and inactive = higher.

Key:
Assay in all cases: inhibition of tumour cell growth, NCI panel, 48 h
[1] = tested on: 786-0
[2] = tested on: A498
[3] = tested on: A549
[4] = tested on: ACHN
[5] = tested on: CAKI-1
[6] = tested on: CCRF-CEM
[7] = tested on: COLO 205
[8] = tested on: DLD-1
[9] = tested on: DMS-114
[10] = tested on: DMS-273
[11] = tested on: EKVX
[12] = tested on: HCC 2998
[13] = tested on: HCT-116
[14] = tested on: HCT-15
[15] = tested on: HL-60
[16] = tested on: HOP-18
[17] = tested on: HOP-62
[18] = tested on: HOP-92
[19] = tested on: HT-29
[20] = tested on: IGROV-1
[21] = tested on: K562
[22] = tested on: KM-20L2
[23] = tested on: KM12
[24] = tested on: LXFL 529
[25] = tested on: M14
[26] = tested on: M19-MEL
[27] = tested on: MOLT-4
[28] = tested on: Malme-3M
[29] = tested on: NCI-H226
[30] = tested on: NCI-H23
[31] = tested on: NCI-H460
[32] = tested on: NCI-H522
[33] = tested on: OVCAR-3
[34] = tested on: OVCAR-4
[35] = tested on: OVCAR-5
[36] = tested on: OVCAR-8
[37] = tested on: RPMI-8226
[38] = tested on: RXF 393
[39] = tested on: RXF 631
[40] = tested on: SF-268
[41] = tested on: SF-295
[42] = tested on: SF-539
[43] = tested on: SK-MEL-2
[44] = tested on: SK-MEL-5
[45] = tested on: SK-OV-3
[46] = tested on: SN12C
[47] = tested on: SNB-19
[48] = tested on: SNB-75
[49] = tested on: SNB-78
[50] = tested on: SR
[51] = tested on: SW-620
[52] = tested on: TK-10
[53] = tested on: U-251
[54] = tested on: UACC-257
[55] = tested on: UACC-62
[56] = tested on: UO-31
[57] = tested on: XF498

SMILES: N#CN1CC[C@@H]2CC3(CCC2C1)OCCO3 (some centres not stated)
- GI50 [1]: > 100 µM (inactive)
- GI50 [2]: > 100 µM (inactive)
- GI50 [3]: > 100 µM (inactive)
- GI50 [4]: > 100 µM (inactive)
- GI50 [5]: > 100 µM (inactive)
- GI50 [6]: > 100 µM (inactive)
- GI50 [7]: > 100 µM (inactive)
- GI50 [8]: > 100 µM (inactive)
- GI50 [9]: > 100 µM (inactive)
- GI50 [10]: > 100 µM (inactive)
- GI50 [11]: > 100 µM (inactive)
- GI50 [12]: > 100 µM (inactive)
- GI50 [13]: > 100 µM (inactive)
- GI50 [14]: > 100 µM
- GI50 [15]: > 100 µM (inactive)
- GI50 [16]: > 100 µM (inactive)
- GI50 [17]: > 100 µM (inactive)
- GI50 [18]: > 100 µM (inactive)
- GI50 [19]: > 100 µM (inactive)
- GI50 [20]: > 100 µM (inactive)
- GI50 [21]: > 100 µM (inactive)
- GI50 [22]: > 100 µM (inactive)
- GI50 [23]: > 100 µM (inactive)
- GI50 [24]: > 100 µM (inactive)
- GI50 [25]: > 100 µM (inactive)
- GI50 [26]: > 100 µM (inactive)
- GI50 [27]: > 100 µM (inactive)
- GI50 [28]: > 100 µM (inactive)
- GI50 [29]: > 100 µM (inactive)
- GI50 [30]: > 100 µM (inactive)
- GI50 [31]: > 100 µM (inactive)
- GI50 [32]: < 0.01 µM (active)
- GI50 [33]: > 100 µM (inactive)
- GI50 [34]: > 100 µM (inactive)
- GI50 [35]: > 100 µM (inactive)
- GI50 [36]: > 100 µM (inactive)
- GI50 [37]: > 100 µM (inactive)
- GI50 [38]: > 100 µM (inactive)
- GI50 [39]: > 100 µM (inactive)
- GI50 [40]: > 100 µM (inactive)
- GI50 [41]: > 100 µM (inactive)
- GI50 [42]: > 100 µM (inactive)
- GI50 [43]: > 100 µM (inactive)
- GI50 [44]: > 100 µM (inactive)
- GI50 [45]: > 100 µM (inactive)
- GI50 [46]: > 100 µM (inactive)
- GI50 [47]: > 100 µM (inactive)
- GI50 [48]: > 100 µM (inactive)
- GI50 [49]: > 100 µM (inactive)
- GI50 [50]: > 100 µM (inactive)
- GI50 [51]: > 100 µM (inactive)
- GI50 [52]: > 100 µM (inactive)
- GI50 [53]: > 100 µM (inactive)
- GI50 [54]: > 100 µM (inactive)
- GI50 [55]: > 100 µM (inactive)
- GI50 [56]: > 100 µM (inactive)
- GI50 [57]: > 100 µM (inactive)
